pIC50: −log10 of the molar value.

The test system of the assay is Gli-luciferase (firefly) reporter in SHh Light II cell line (NIH-3T3), Hedgehog pathway. The assay is described as follows: Light II Assay (SHh-Smo cell-based Gli-luciferase reporter assay). Conditions: rSHh stimulated cells, 24 hours, % inhibition of luciferase signal. How it is done: The SHh-Smo assay is a cell-based reporter assay in the SHh Light II cell line (NIH-3T3), available through the American Tissue Culture Center (ATCC). […] In addition, this cell line contains a constitutively expressed renilla luciferase reporter (via CMV promoter) which can be used as a readout to detect any non-specific compound effects, including cytotoxicity.
Test compounds were serially diluted in DMSO and 1.5 μL aliquots were transferred to 384-well non-binding plates. Compounds were diluted with 85 μL of assay media (DMEM+0.5% FBS, 5 mM Hepes, 1% NEAA, 1% PenStrep, 0.8% Geneticin). Cell plates were prepared by adding 50 μL of assay media (240 cells/μL) to white TC coated 384-well plates (final cell concentration is 12,000 cells/well). Cell plates were incubated overnight at 37° C.
Media was removed from the cell plates and 30 μL of compound in assay media+rSHh (1.5 μg/well) was added to the cell plates. Plates were incubated at 37° C. for 24 hours. Following overnight incubation, media was aspirated from the cell plates and 20 μL of luciferase media (Bright-glo, Promega) was added to the cell. Cells were incubated for 5 minutes and measured on an Envision™ plate reader (Perkn Elmer) using the luciferase detection protocol. IC50 values were calculated as a percentage inhibition of luciferase signal from rSHh stimulated cells compared to unstimulated cells.
Consider `Cc1cccc(C)c1NC(=O)c1cc(Nc2nc(-c3ccccc3)c3ccccc3n2)c(Cl)s1` [5-chloro-N-(2,6-dimethylphenyl)-4-[(4-phenylquinazolin-2-yl)amino]thiophene-2-carboxamide], for which the pIC50 (as a rule, the IC50 on a negative log10 scale, so that one unit is a factor of ten) is 6.78. Regarding `CN(C)Cc1cccc(NC(=O)c2ccc(Nc3nc(-c4ccccc4)c4ccccc4n3)cc2)c1` [N-{3-[(dimethylamino)methyl]phenyl}-4-[(4-phenylquinazolin-2-yl)amino]benzamide], the pIC50 is 8.21. `Cc1ccc(CN(C)Cc2ccccc2)cc1NC(=O)c1ccc(Nc2nc(C)c3ccccc3n2)cc1` [N-(2-methyl-5-{[methyl(phenylmethyl)amino]methyl}phenyl)-4-[(4-methylquinazolin-2-yl)amino]benzamide]: the pIC50 was 8.47. In the case of `Cc1ccc(CN(C)C)cc1NC(=O)c1ccc(Nc2nc(-c3cccs3)c3ccccc3n2)cc1` [N-{5-[(dimethylamino)methyl]-2-methylphenyl}-4-{[4-(2-thienyl)quinazolin-2-yl]amino}benzamide], the pIC50 was 7.68.

In the case of `Cc1ccc(-c2ccn[nH]2)cc1NC(=O)c1ccc(Nc2nc(-c3ccccc3)c3ccccc3n2)cc1` [N-[2-methyl-5-(1H-pyrazol-5-yl)phenyl]-4-[(4-phenylquinazolin-2-yl)amino]benzamide], the pIC50 is 8.20. Consider `Cc1ccc(CN2CCOCC2)cc1NC(=O)c1ccc(Nc2nc(-c3ccccc3)c3ccccc3n2)c(F)c1` [3-fluoro-N-[2-methyl-5-(morpholin-4-ylmethyl)phenyl]-4-[(4-phenylquinazolin-2-yl)amino]benzamide], for which the pIC50 was 8.21. `Cc1cccc(C)c1NC(=O)c1ccc(Nc2nc(C3CC3)c3ccccc3n2)cc1` [4-[(4-cyclopropylquinazolin-2-yl)amino]-N-(2,6-dimethylphenyl)benzamide] had a pIC50 of 8.55. As for `Cc1cccc(C)c1NC(=O)c1ccc(Nc2nc3c(c(-c4ccccc4)n2)CCC3)cc1` [N-(2,6-dimethylphenyl)-4-[(4-phenyl-6,7-dihydro-5H-cyclopenta[d]pyrimidin-2-yl)amino]benzamide], the figure is 7.59; as for `CCN1CCN(C(=O)c2ccc(C)c(NC(=O)c3ccc(Nc4nc(-c5ccccc5)c5ccccc5n4)cc3)c2)CC1` [N-{5-[(4-ethylpiperazin-1-yl)carbonyl]-2-methylphenyl}-4-[(4-phenylquinazolin-2-yl)amino]benzamide], 7.62.

Turning to `Cc1ccc(C(=O)NCCN(C)C)cc1NC(=O)c1ccc(Nc2nc(-c3ccccc3)c3ccccc3n2)cc1` [N-[2-(dimethylamino)ethyl]-4-methyl-3-[({4-[(4-phenylquinazolin-2-yl)amino]phenyl}carbonyl)amino]benzamide], the pIC50 is 7.79. In turn, `Cc1cccc(C)c1NC(=O)c1ccc(Nc2nc(-c3ccccc3)c3cccnc3n2)cc1` [N-(2,6-dimethylphenyl)-4-[(4-phenylpyrido[2,3-d]pyrimidin-2-yl)amino]benzamide] gave a pIC50 of 8.44. For the compound `Cc1ccc(OCCN2CCOCC2)cc1NC(=O)c1ccc(Nc2nc(-c3ccccc3)c3ccccc3n2)cc1` [N-{2-methyl-5-[(2-morpholin-4-ylethyl)oxy]phenyl}-4-[(4-phenylquinazolin-2-yl)amino]benzamide], the pIC50 was 8.21.

For the compound `Cc1cccc(C)c1NC(=O)c1ccc(Nc2nc3c(c(-c4ccccc4)n2)CN(Cc2ccccc2)CC3)cc1` [N-(2,6-dimethylphenyl)-4-{[4-phenyl-6-(phenylmethyl)-5,6,7,8-tetrahydropyrido[4,3-d]pyrimidin-2-yl]amino}benzamide], the pIC50 was 6.81. With `Cc1ccc(CN2CCOCC2)cc1NC(=O)c1ccc(Nc2nc(C(C)C)c3ccccc3n2)cc1` [4-{[4-(1-methylethyl)quinazolin-2-yl]amino}-N-[2-methyl-5-(morpholin-4-ylmethyl)phenyl]benzamide], the pIC50 is 7.75. In the case of `CN1CCc2ccc(NC(=O)c3ccc(Nc4nc(-c5ccccc5)c5ccccc5n4)cc3)cc2C1` [N-(2-methyl-1,2,3,4-tetrahydroisoquinolin-7-yl)-4-[(4-phenylquinazolin-2-yl)amino]benzamide], the pIC50 is 8.24. `O=C(c1ccccc1)N1CCC(Nc2nc(-c3ccccc3)c3ccccc3n2)CC1` [4-phenyl-N-[1-(phenylcarbonyl)piperidin-4-yl]quinazolin-2-amine]: the negative-log IC50 (pIC50) is 7.16.

For the origin of these results see patent publication US8222263B2, “Inhibitors of hedgehog pathway” (Exelixis Patent Company LLC, priority 2007, dated 2012).
